Results taken from patent US20260014278A1, “HYBRID PEPTIDE DENDRIMER SYSTEMS AND EXTRAHEPATIC DELIVERY” (NUNTIUS THERAPEUTICS LIMITED, priority 2022, published 2026).

Experiments:
[1] = tested on: mouse macrophages; experiment: eGFP mRNA transfection of mouse macrophages with or without mannose-dendrimer coat; type: cell-based
Protocol: J774.2 cells were subcultured in DMEM supplemented with 2 mM glutamax and 10% heat-inactivated FBS (complete media). Twice a week (at about 70-80% confluency; every 3-4 days), cells were scrapped and collected into Falcon tubes, and pelleted at 400 g for 5 minutes. The cells were resuspended in complete media, counted and seeded into 10 cm dishes at a density of 1.7-2.5E+4 cells/cm^2. For M2 polarisation, the cells were treated with complete media supplemented with 20 ng/ml recombinant murine IL-4 and 20 ng/ml recombinant murine IL-13 (activation media) over a 48 hr period. After 24 hrs in IL-4 and IL-13 containing medium, the cells scrapped and collected as described above. The cells were seeded into 24-well plates at a density of 1.2E+5 cells/well in 0.5mls/well complete media containing 20 ng/ml IL-4 and IL-13.
The media overlaying the polarised J774.2 cells was aspirated and exchanged with 480 ul/well activation media. 120 ul/well of each test condition (total volume was 600 ul/well) was added (test conditions were prepared in 25 mM HEPES solution). Control conditions were prepared consisting of neat 25 mM HEPES and an mRNA control. Between addition of each test condition the plate was shaken back and forth to ensure mixing. The plate was placed into the incubator overnight.
Staining and fixation for both human and mouse-derived macrophages was carried out as follows. After 24 hrs the media overlaying each test condition was transferred to corresponding 1.5 ml Eppendorf tubes (in order to conserve cells that may have died during transfection). Cells were then washed with 300 ul/well PBS which was transferred to the corresponding tubes. 500 ul/well 5 mM EDTA was added to each well and the plate(s) transferred to the 37° C. incubator for 5-10 minutes until the cells started to detach. Cells were then transferred from the plate to the corresponding 1.5 ml tubes. Cells were pelleted down at 300 g for 5 minutes and resuspended in 100 ul/sample fixable Live/Dead Aqua stain. ArC beads were stained with 3 ul neat Live/Dead Aqua for compensation. These cells were stained on ice for 30 minutes. Following this, the tubes were spun down at 300 g for 5 minutes. The supernatant was discarded, and the cells were resuspended in 500 ul/sample PBS. Negative ArC beads were added to the compensation control. GFP compensation beads were dispensed into separate tube as the GFP compensation control. The samples were spun down at 300 g for 5 minutes. Samples were then resuspended in 100 ul/sample of Reagent A from the Invitrogen Fix/Perm kit and left at room temperature for 15 minutes. The samples were spun down at 400 g for 5 minutes and the supernatant was disposed. The samples were once again washed with PBS and spun down at 300 g for 5 minutes. The cells were finally resuspended in 400 ul/sample FACS buffer (PBS+2 mM EDTA+0.5% w/v BSA) for flow analysis. Samples were stored in the fridge prior to flow analysis and run within 24 hrs of fixation.
12 μl of a nanoparticle formulation was aliquoted into a sterile 0.5 ml polypropylene tube. 4 μl of a 0.3 mg/ml, 0.6 mg/ml or 1.8 mg/ml solution of (Ac-EEEE)2[…][(S-S)-α-D-Thiomannose] (for a mRNA:coating mass ratio of 1:0.5, 1:1 or 1:3, respectively) was mixed by rapidly pipetting up and down 10-15 times, and allowed to incubate for 5 minutes.
Macrophages, and in particular M2-phenotype macrophages, are known to have enriched surface expression of the receptor CD206, the ligand for which is mannose.

[2] = tested on: macrophage-polarised primary bone marrow derived monocytes; experiment: eGFP mRNA transfection of macrophage-polarised primary mouse bone marrow derived monocytes, flow cytometry; type: cell-based; details: GSCG1,2-RHL NP=0.6:1, GSCG1,2-RL, 3-LR NP=0.16:1, GSCG1,RL, 2-LR NP=8:1, DOTMA:DOPE w/w 10:1, lipid-only DOTMA/DOPE w/w 3.2:1, FIG. 2
Protocol: BMDM cells were isolated using the StemCell Tech EasySep Mouse Monocyte Isolation Kit from mouse bone marrow cell suspension. The cells were resuspended in complete medium (DMEM+1% glutamax+10% heat inactivated FBS+1% Pen/Strep) enriched with 50 ng/ml murine M-CSF (1:1000 of 50 μg/ml stock) at 1E+6 cells/mi. 2 million cells (i.e. 2 mL) was seeded in each well of 6-well plate(s). The plate was incubated at 37° C. for 4 days. Half media exchange was performed using complete media enriched with […] murine M-CSF and 40 ng/ml murine IL-4. Cells were then harvested the next day (day 5) by washing cells with PBS and a 10 minute incubation with 5 mM EDTA (diluted in PBS) at 37° C. followed by plate tapping and resuspension. […]
Data were collected using a BD LSRFortessa I analyser running […] software (Beckton Dickinson). All collected data were analysed using FlowJo 10.0 software.
Transfection efficiency of macrophage-polarised primary bone marrow derived monocytes using various peptide dendrimer/lipid nanoparticles was assessed and compared to lipid-only nanoparticles (LPX-RNA). Each nanoparticle, with or without dendrimer, included eGFP mRNA to allow analysis of absolute numbers of cells transfected to be assessed by flow cytometry. […]

[3] = Zeta potential of nanoparticles (electrophoretic light scattering); type: physicochemical
Text: Zeta potential is a measurement of the magnitude of the electrostatic or charge repulsion/attraction between particles. This can be determined by analysing particle mobility and charge (Zeta potential) using the Electrophoretic Light Scattering (ELS) technique.
Zeta potential is a measurement of the magnitude of the electrostatic or charge repulsion/attraction between particles. This can be determined by analysing particle mobility and charge (Zeta potential) using the Electrophoretic Light Scattering (ELS) technique. […] Parameters: reference material: polystyrene latex, dispersant: water, 25° C. The measurements of the zeta potential were carried out using the Zetasizer Advance Series—Pro (Malvern Panalytical Ltd, Malvern, UK) according to the manufacturer's instructions.

For (RHL)4(KRHL)2KGSC-NH2 [GSCG1,2-RHL], the “transfection efficiency with mannose-conjugated dendrimer coat versus uncoated” value ([1]; NP=0.6:1, lipid:mRNA w/w 10:1, coat 3:1 (3 eq) coating:mRNA, FIG. 7) was “further increase the transfection efficiency”, the transfection efficiency ([1]; NP=0.6:1, lipid:mRNA w/w 10:1, uncoated, FIG. 7) was greater than 70% and the transfection rate ([1]; NP=8:1, DOTMA/DOPE:mRNA w/w 10:1, uncoated, FIG. 6) was roughly 60%. The transfection efficiency ([1]; NP=8:1, lipid:mRNA w/w 2.5:1, coated with (Ac-EEEE)2KGSGGSGGSC[(S-S)-α-D-Thiomannose] at 1:1 (1 eq) coating:mRNA, FIG. 4) was roughly 25%, the transfection efficiency ([1]; NP=8:1, lipid:mRNA w/w 2.5:1, uncoated, FIG. 4) was 2-3% and the transfection efficiency ([1]; NP=8:1, lipid:mRNA w/w 5:1, dendrimer-mannose coat 0.5:1 (0.5 eq) coating:mRNA, FIG. 5) was roughly 75%. For the same substance, the transfection efficiency ([1]; NP=8:1, lipid:mRNA w/w 5:1, uncoated, lipid-only nanoparticles as comparator, FIG. 5) was roughly 60%, the transfection efficiency [2] was “approximately 35%” and the “zeta potential” value ([3]; GSCG1,2-RHL N:P=0.6:1, DOTMA:DOPE, coated with GSGGSGGSCG1-EEEE, with/without CpG (mRNA:CpG w/w 9:1)) was “+48 mV”. The Zeta potential measurement ([3]; GSCG1,2-RHL and DOTMA:DOPE nanoparticles, diluted 3× in 25 mM HEPES, then 60× in water) was “+33.5 mV” and the “zeta potential” value ([3]; mRNA, N:P 0.6:1, DOTMA:DOPE w/w 10:1, with or without 3 equivalents G1-EEEE with mannose coating) was 28.23 mV.
